Active and inactive are the calls of the source.
How the values were obtained:
[1] = molecular target: Ubiquitin carboxyl-terminal hydrolase BAP1 (Homo sapiens, UniProt Q92560); test: inhibition of BAP1 ubiquitin hydrolase activity – biochemical, dose response (AID 714); assay type: functional
Bcl-2-related protein A1 [2] = molecular target: T1, Bcl-2-related protein A1 (Mus musculus, UniProt Q07440); test: displacement of Bid BH3 peptide from Bfl-1 – biochemical, fluorescence polarization, FITC-Bid, mouse, primary screen (AID 432)
T1 sequence (Q07440 whole entry): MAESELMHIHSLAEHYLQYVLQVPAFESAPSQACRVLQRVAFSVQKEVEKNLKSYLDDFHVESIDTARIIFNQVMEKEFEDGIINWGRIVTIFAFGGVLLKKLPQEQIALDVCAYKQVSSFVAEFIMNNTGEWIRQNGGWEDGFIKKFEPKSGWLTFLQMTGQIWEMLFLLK

Bcl-2-related protein A1 [3] = molecular target: T1, Bcl-2-related protein A1; test: small-molecule antagonists of Bfl-1/BH3 interaction – biochemical, TR-FRET, mouse Bfl-1, confirmation (AID 621);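 note: TR-FRET binding of GST-Bfl-1 to FITC-labelled Bid peptide via terbium antibody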
NADPH oxidase 1 = molecular target: T2, NADPH oxidase 1 (Homo sapiens, UniProt Q9Y5S8); test: Late-stage luminescence-based cell-based dose response assay to identify inhibitors of NADPH oxidase 1 (NOX1): Purchased analogs 2.; assay type: functional
T2 sequence (Q9Y5S8 whole entry): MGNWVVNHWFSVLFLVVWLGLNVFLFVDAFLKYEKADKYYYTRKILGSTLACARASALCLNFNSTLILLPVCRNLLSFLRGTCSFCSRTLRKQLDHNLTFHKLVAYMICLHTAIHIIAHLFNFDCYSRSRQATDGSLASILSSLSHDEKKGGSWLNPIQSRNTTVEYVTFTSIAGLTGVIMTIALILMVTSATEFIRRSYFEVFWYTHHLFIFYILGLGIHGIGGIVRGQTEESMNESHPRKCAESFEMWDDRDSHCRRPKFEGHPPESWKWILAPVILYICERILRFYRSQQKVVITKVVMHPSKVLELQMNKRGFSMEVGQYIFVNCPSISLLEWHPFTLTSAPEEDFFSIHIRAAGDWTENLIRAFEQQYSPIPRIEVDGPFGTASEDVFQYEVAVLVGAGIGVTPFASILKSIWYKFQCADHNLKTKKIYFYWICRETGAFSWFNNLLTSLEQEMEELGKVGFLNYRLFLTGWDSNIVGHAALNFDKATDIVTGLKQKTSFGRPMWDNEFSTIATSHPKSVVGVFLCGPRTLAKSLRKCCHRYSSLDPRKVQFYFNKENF

[4] = Luminescent dose response cell-based high throughput screening assay for inhibitors of the Janus kinase 2 mutant JAK2V617F. [Related pubchem assays: 1446 (Primary screen.), 1521 (Confirmation assay.), 1486 (Counter screen.)]; assay type: functional
[5] = molecular target: 5-hydroxytryptamine receptor 1A (Homo sapiens, UniProt P08908); assay type: functional
5-hydroxytryptamine receptor 1A, sequence (P08908 whole entry): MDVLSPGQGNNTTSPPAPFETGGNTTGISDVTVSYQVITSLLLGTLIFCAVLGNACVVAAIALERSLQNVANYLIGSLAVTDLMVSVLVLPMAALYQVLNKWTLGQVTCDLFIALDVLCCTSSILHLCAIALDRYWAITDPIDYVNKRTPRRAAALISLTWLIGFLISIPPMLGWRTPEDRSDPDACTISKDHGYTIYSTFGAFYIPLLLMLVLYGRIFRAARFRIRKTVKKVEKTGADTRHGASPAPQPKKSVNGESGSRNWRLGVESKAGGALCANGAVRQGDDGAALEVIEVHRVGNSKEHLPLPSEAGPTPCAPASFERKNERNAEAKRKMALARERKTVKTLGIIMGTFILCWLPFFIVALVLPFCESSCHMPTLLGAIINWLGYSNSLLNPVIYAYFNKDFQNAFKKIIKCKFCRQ

[6] = molecular target: T3, Corticotropin-releasing factor receptor 2/Corticotropin-releasing factor-binding protein (Homo sapiens, UniProt P24387+Q13324); test: activators of CRF receptor 2 with binding protein – uHTS hits, confirmation (AID 602473); assay type: functional; settings: read-out: EC50_Mean
T3 sequence (Q13324 whole entry): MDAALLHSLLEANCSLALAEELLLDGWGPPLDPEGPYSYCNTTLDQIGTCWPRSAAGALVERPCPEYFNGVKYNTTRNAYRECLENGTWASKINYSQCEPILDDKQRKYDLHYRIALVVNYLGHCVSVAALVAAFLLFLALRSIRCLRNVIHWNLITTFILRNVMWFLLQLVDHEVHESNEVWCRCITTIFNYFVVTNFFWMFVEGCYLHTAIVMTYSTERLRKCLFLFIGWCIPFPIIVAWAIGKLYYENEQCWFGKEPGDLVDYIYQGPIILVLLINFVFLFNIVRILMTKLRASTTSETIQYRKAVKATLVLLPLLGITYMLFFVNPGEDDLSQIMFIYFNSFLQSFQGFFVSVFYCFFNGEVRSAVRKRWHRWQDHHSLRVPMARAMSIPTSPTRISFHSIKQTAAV
T3 sequence (P24387 whole entry): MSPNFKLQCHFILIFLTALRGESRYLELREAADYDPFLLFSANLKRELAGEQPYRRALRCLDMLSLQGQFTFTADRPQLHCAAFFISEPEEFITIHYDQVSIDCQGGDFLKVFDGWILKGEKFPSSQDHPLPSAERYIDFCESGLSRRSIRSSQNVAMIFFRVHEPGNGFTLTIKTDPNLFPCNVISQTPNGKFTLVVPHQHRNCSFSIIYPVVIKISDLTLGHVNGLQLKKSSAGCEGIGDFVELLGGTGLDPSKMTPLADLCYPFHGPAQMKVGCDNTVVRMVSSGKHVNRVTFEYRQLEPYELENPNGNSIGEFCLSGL

[7] = molecular target: T4, Carboxy-terminal domain RNA polymerase II polypeptide A small phosphatase 1 (Homo sapiens, UniProt Q9GZU7); test: CTDSP1 inhibitors, concentration-response, biochemical, absorbance readout, ultra-high-throughput screen actives (AID 540297); assay type: functional
T4 sequence (Q9GZU7 whole entry): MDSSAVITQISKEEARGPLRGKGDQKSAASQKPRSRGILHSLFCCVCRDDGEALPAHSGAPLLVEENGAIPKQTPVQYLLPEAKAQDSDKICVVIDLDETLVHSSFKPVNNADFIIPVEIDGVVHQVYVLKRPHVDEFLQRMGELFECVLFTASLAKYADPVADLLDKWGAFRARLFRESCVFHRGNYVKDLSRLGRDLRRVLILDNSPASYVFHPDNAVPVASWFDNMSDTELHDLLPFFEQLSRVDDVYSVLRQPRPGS

Estrogen receptor beta [8] = molecular target: T5, Estrogen receptor beta (Homo sapiens, UniProt Q92731); test: blockers of SRC-3 recruitment to ERβ – biochemical, ELISA, streptavidin-HRP readout, orthogonal assay, confirmation (AID 1060)
T5 sequence (Q92731 whole entry): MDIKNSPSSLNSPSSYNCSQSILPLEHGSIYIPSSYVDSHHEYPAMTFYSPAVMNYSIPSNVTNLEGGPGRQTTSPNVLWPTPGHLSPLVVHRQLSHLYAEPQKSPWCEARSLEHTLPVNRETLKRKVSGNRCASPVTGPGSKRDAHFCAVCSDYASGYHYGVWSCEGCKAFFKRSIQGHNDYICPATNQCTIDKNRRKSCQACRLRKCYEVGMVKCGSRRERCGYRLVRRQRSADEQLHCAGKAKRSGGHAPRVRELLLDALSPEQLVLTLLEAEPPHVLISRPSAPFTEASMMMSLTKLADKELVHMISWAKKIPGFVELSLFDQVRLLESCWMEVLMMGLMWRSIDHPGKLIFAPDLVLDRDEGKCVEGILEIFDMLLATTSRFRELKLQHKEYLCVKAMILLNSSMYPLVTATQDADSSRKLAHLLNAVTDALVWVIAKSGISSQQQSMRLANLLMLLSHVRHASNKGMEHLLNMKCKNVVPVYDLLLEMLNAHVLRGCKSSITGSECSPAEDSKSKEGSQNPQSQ

Estrogen receptor beta [9] = molecular target: T5, Estrogen receptor beta
[10] = antibacterial activity against E. coli NEB5alpha – luminescence, counter-screen for MEX-5/POS-1 RNA-binding inhibitor project, dose response (AID 1959); assay type: functional
[11] = molecular target: T6, Zinc finger protein mex-5 (Caenorhabditis elegans, UniProt Q9XUB2); test: potency of MEX-5 RNA-binding blockers – biochemical, C. elegans, fluorescence polarization, dose response (AID 1960)
T6 sequence (Q9XUB2 whole entry): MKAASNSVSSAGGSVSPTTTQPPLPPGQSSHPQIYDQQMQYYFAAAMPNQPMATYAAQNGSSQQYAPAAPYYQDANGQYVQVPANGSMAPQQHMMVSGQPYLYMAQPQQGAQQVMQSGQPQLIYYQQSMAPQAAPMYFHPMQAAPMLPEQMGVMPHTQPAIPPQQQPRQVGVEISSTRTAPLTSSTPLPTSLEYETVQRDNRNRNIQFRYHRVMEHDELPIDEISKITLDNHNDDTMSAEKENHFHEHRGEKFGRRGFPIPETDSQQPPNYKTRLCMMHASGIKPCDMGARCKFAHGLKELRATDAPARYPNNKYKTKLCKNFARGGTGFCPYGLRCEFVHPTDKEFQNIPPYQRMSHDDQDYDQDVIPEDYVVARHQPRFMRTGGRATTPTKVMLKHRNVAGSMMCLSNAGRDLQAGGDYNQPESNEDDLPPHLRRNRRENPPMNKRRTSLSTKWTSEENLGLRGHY

[12] = molecular target: T7, RNA-binding protein pos-1 (Caenorhabditis elegans, UniProt G5EF15); test: disruptors of C. elegans POS-1 RNA interaction – biochemical, fluorescence polarization, dose response (AID 1964);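 note: purified POS-1 fused to maltose binding protein made in E. coli; potency of compounds blocking POS-1 binding to fluorescent RNA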
T7 sequence (G5EF15 whole entry): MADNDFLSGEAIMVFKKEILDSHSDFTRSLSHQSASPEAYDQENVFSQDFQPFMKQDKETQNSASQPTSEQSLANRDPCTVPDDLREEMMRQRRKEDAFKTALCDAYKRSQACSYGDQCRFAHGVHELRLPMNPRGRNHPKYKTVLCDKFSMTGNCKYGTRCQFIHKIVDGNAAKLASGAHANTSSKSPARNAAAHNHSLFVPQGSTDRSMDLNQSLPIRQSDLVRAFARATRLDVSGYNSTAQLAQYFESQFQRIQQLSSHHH

[13] = viability of uninfected HEp-2 cells – cell-based, HTS, cytotoxicity control for RSV inhibitor project, dose response (AID 2410); assay type: functional; settings: human respiratory syncytial virus
[14] = M. tuberculosis H37Rv growth inhibitors, H37Rv strain (AID 1626); assay type: functional

Ubiquitin carboxyl-terminal hydrolase BAP1, sequence (Q92560 whole entry): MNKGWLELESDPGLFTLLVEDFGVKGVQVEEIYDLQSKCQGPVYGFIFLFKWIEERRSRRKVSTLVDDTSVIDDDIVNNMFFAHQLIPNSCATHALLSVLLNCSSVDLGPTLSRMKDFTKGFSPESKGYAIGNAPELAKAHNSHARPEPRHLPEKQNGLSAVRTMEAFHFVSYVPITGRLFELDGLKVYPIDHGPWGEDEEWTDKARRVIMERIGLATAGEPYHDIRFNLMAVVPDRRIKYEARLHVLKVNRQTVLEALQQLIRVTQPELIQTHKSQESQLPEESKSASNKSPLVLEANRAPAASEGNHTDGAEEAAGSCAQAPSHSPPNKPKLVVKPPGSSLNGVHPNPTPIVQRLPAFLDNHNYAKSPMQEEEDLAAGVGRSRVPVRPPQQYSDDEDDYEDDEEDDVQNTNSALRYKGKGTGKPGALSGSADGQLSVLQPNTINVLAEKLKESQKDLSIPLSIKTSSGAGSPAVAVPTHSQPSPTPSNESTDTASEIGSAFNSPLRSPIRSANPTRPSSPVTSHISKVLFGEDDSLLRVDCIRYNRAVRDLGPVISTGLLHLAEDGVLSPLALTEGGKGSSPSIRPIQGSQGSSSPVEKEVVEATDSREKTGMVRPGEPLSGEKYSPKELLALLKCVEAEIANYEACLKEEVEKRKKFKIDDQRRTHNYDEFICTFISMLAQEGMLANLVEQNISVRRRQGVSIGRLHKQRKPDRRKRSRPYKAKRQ

**Q.** With `COc1ccc2nc(NC(=O)CCc3nc(-c4ccccc4F)no3)sc2c1` as the molecule, how does the IC50 [1] read?
**A.** 36.6 µM (not active)

**Q.** Which results are given for `CN(C)c1ccc(-c2nn3c(-c4ccc(Cl)cc4Cl)nnc3s2)cc1`?
**A.** IC50 (Bcl-2-related protein A1 [2]): > 100 µM (not active); IC50 (Bcl-2-related protein A1 [3]): > 100 µM (not active)

**Q.** With `O=C(Nc1ccc(Oc2ccc(Cl)cc2)cc1)Nc1ccc([N+](=O)[O-])cc1` as the molecule, how does the IC50 (NADPH oxidase 1) read?
**A.** > 17 µM (not active)

**Q.** For `Oc1ccccc1OCCOc1ccccc1OCCOc1ccccc1O`, which IC50 [4] is on record?
**A.** 1.48 µM (active)

**Q.** With `c1ccc(N2CCN(Cc3cn4cccnc4n3)CC2)cc1` as the molecule, how does the EC50 [5] read?
**A.** > 50 µM (not active)

**Q.** For `CCCc1nc2sc3ccccc3c(=O)c2c(=O)n1Cc1ccco1`, which EC50 [6] is on record?
**A.** 13.8 µM (active)

**Q.** And the IC50 [7]?
**A.** 9.92 µM (active)

**Q.** What about the IC50 (Estrogen receptor beta [8]) of the same molecule?
**A.** 0.709 µM (not active)

**Q.** And the IC50 (Estrogen receptor beta [9])?
**A.** 11.6 µM (active)

**Q.** With `O=c1c2ccccc2nc(N/N=C/c2ccc(O)cc2)n1O` as the molecule, how does the EC50 [10] read?
**A.** 14.3 µM (active)

**Q.** And the EC50 [11]?
**A.** > 300 µM (inconclusive)

**Q.** What about the EC50 [12] of the same molecule?
**A.** > 300 µM (not active)

**Q.** Which CC50 [13] does the source give for `Cc1cc(-c2ccc(/C=N/n3cnnc3)o2)ccc1Cl` here?
**A.** > 50 µM (active)

**Q.** And the IC50 [14]?
**A.** > 100 µM (active)

Source: ChEMBL document CHEMBL1201862, “PubChem BioAssay data set” (2004)
